Results on 21 compounds are retold here after patent publication US5773646A, “Meta-substituted phenylene derivatives” (G. D. Searle & Co., priority 1997, dated 1998).

The target in assay [1] is T1, Human fibrinogen receptor (αIIb β3) (Homo sapiens, UniProt P05106+P08514).
T1 construct: Human fibrinogen receptor (αIIb β3) was purified from outdated platelets; from tissue; host or cells: outdated human platelets
The assay can be described thus: Purified IIb/IIIa receptor assay (solid phase receptor assay, biotinylated vitronectin competition). The following applies: inhibition of 50% of the maximum binding of biotinylated vitronectin; 1 nM labeled ligand, 2 hours, room temperature, highest concentration of test compound 1.0×10^-4 M. An outline of the steps:
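Platelet-purified αIIbβ3 was coated at 100 ng/well in TBS with 1 mM Ca²⁺/Mg²⁺/Mn²⁺, pH 7.4, then BSA-blocked. Compound (up to 1.0×10⁻⁴ M final) competed with 1 nM biotinylated vitronectin for 2 h at room temperature. Bound ligand was detected with HRP anti-biotin at A450, normalized to maximum binding, and curve-fitted.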

Assay [2] deals with T2, Human vitronectin receptor (αv β3) (Homo sapiens, UniProt P05106+P06756).
T2 construct: Human vitronectin receptor(αv β3) was purified from human placenta; from tissue; host or cells: human placenta
Put plainly: Vitronectin adhesion assay (solid phase receptor assay, biotinylated vitronectin competition). The following applies: inhibition of 50% of the maximum binding of biotinylated vitronectin; 1 nM labeled ligand, 2 hours, room temperature, highest concentration of test compound 1.0×10^-4 M; read-out: AvB3 IC50. In kind it is binding. In a few lines: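 Placenta-purified αvβ3 coated at 1.0 μg/mL in TBS (1 mM Ca, Mg, Mn, pH 7.4), overnight 4 °C. Compound competed 2 h at RT with 1 nM biotinylated vitronectin (final; top compound 1.0×10^-4 M); bound ligand detected by HRP anti-biotin/OPD at 450 nm, normalized to no-competitor controls, four-parameter fit.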

Where a name gives a salt, the structure may show the parent alone. Some results are limits rather than exact numbers.

The IC50 is the midpoint of a concentration-inhibition curve. For `O=C(O)CC(c1cc(F)cc(F)c1)c1cccc(NS(=O)(=O)c2cccc(NC3=NCCCN3)c2)c1` (stereo not drawn) [Example 97, 3,5-difluoro-β-[3-[[[3-[(1,4,5,6-tetrahydropyrimidin-2-yl)amino]phenyl]sulfonyl]amino]phenyl]benzenepropanoic Acid, Bis(trifluoroacetate) Salt], the IC50 turned out to be 262 nM in assay [1] and 0.75 nM in assay [2].

Take `N=C(N)Nc1cccc([S+]([O-])Cc2cccc(C(CC(=O)O)c3ccccc3)c2)c1` (stereo not drawn) [Example 88, 3-[[[3-[(aminoiminomethyl)amino]phenyl]sulfinyl]methyl]-β-phenylbenzenepropanoic Acid, Trifluoroacetate Salt]: the IC50 in assay [1] stood at 870 nM; in assay [2], 19.6 nM.

As for `NC(=O)Nc1cccc(C(=O)Nc2cccc(C(CC(=O)O)c3ccccc3)c2)c1` (stereo not drawn) [Example 5, 3-[[[3-[(aminocarbonyl)amino]phenyl]carbonyl]amino]-β-phenylbenzenepropanoic acid], the IC50 in assay [1] worked out at 21600 nM; in assay [2], 15300 nM.

As for `N=C(N)Nc1cccc(CC(=O)Nc2cccc(CCC(=O)O)c2)c1` [Example 46, 3-[[[3-[(aminoiminomethyl)amino]phenyl]acetyl]amino]benzenepropanoic acid, trifluoroacetate salt], the IC50 in assay [1] amounted to 2280 nM; in assay [2], 2440 nM.

Consider `N=C(N)Nc1cccc(S(=O)(=O)Nc2cccc(C(CC(=O)O)c3c(F)c(F)cc(F)c3F)c2)c1` (stereo not drawn) [Example 82, β-[3-[[[3-[(aminoiminomethyl)amino]phenyl]sulfonyl]amino]phenyl]-2,3,5,6-tetrafluorobenzenepropanoic Acid, Trifluoroacetate Salt], for which the IC50 amounted to 11700 nM in assay [1] and 191 nM in assay [2].

Take `N=C(N)Nc1cccc(C(=O)NCc2cccc(CC(=O)O)c2)c1` [Example 49, 3-[[[[3-[(aminoiminomethyl)amino]phenyl]carbonyl]amino]methyl]benzeneacetic acid, trifluoroacetate salt]: the IC50 in assay [1] was found to be 12700 nM; in assay [2] it was 1680 nM.

Turning to `N=C(N)Nc1cccc(/C=C/c2cccc(C(CC(=O)O)c3ccccc3)c2)c1` (stereo not drawn) [Example 75, 3-[2E-[3-[(aminoiminomethyl)amino]phenyl]ethenyl]-β-phenylbenzenepropanoic Acid, Bis(trifluoroacetate) Salt], the half-inhibitory concentration (IC50) in assay [1] came out at 6150 nM; in assay [2], 54.5 nM.

For the compound `N=C(N)Nc1cccc(NC(=O)NCc2cccc(CCC(=O)O)c2)c1` [Example 53, 3-[[[[[3-[(aminoiminomethyl)amino]phenyl]amino]carbonyl]amino]methyl]benzenepropanoic acid, trifluoroacetate salt], the results for the IC50 in assay [1] and in assay [2] were 2640 nM and 1670 nM, respectively.

Turning to `N=C(N)Nc1cc(C(=O)NCc2cccc(C(CC(=O)O)c3cc(F)cc(F)c3)c2)cc(C(F)(F)F)c1` (racemic) [Example 61, (±) β-[3-[[[[3-[(aminoiminomethyl)amino]-5-(trifluoromethyl)phenyl]carbonyl]amino]methyl]phenyl]-3,5-difluorobenzenepropanoic acid, trifluoroacetate salt hydrate], the figures for the IC50 in assay [1] and in assay [2] were 712 nM and 1.33 nM, respectively.

With `O=C(O)CC(c1cc(F)cc(F)c1)c1cccc(NS(=O)(=O)c2cccc(NC3=NCCN3)c2)c1` (stereo not drawn) [Example 98, β-[3-[[[3-[(4,5-dihydro-1H-imidazol-2-yl)amino]phenyl]sulfonyl]amino]phenyl]-3,5-difluorobenzenepropanoic Acid, Trifluoroacetate Salt], the IC50 was determined as 642 nM in assay [1] and 0.85 nM in assay [2].

Consider `N=C(N)Nc1cccc(S(=O)(=O)Nc2cccc(C(CC(=O)O)c3cc(Cl)cc(Cl)c3)c2)c1` (stereo not drawn) [Example 77, β-[3-[[[3-[(aminoiminomethyl)amino]phenyl]sulfonyl]amino]phenyl]-3,5-dichlorobenzene Propanoic Acid, Trifluoroacetate Salt], for which the IC50 in assay [1] stood at 5820 nM; in assay [2], 32.5 nM.

Regarding `CC(CC(=O)O)c1cccc(CNC(=O)c2cccc(NC(N)=NC(N)=O)c2)c1` (racemic) [Example 65, (±) 3[[[[3-[[amino[(aminocarbonyl)imino]methyl]amino]phenyl]carbonyl]amino]methyl]-β-methylbenzenepropanoic acid, trifluoroacetate salt], the results for the IC50 in assay [1] and in assay [2] were 4010 nM and 23 nM, respectively.

For `N=C(N)Nc1cccc(S(=O)(=O)Nc2cccc(C(CC(=O)O)c3c(F)c(F)c(F)c(F)c3F)c2)c1` (stereo not drawn) [Example 81, β-[3-[[[3-[(aminoiminomethyl)amino]phenyl]sulfonyl]amino]phenyl]perfluorobenzenepropanoic Acid, Trifluoroacetate Salt], the 50% inhibitory concentration (IC50) in assay [1] was determined as 2550 nM; in assay [2] it was 86 nM.

As to `N=C(N)Nc1cccc(S(=O)(=O)Nc2cccc(C(CC(=O)O)c3ccc(F)cc3)c2)c1` (stereo not drawn) [Example 79, β-[3-[[[3-[(aminoiminomethyl)amino]phenyl]sulfonyl]amino]phenyl]-4-fluorobenzenepropanoic Acid, Trifluoroacetate Salt], the concentration for half-maximal inhibition (IC50) in assay [1] stood at 327 nM; in assay [2] it was 10 nM.

For the compound `N=C(N)Nc1cccc(C#Cc2cccc(C(CC(=O)O)c3ccccc3)c2)c1` (stereo not drawn) [Example 74, 3-[2-[3-[(aminoiminomethyl)amino]phenyl]ethynyl]-β-phenylbenzenepropanoic acid, trifluoroacetate salt], the IC50 was 20100 nM in assay [1] and 1480 nM in assay [2].

Take `CC(C)(C)OC(=O)CC(c1ccccc1)c1cccc(NS(=O)(=O)c2cccc(NC(N)=NC#N)c2)c1` (stereo not drawn) [Example 15]: the 50% inhibitory concentration (IC50) in assay [1] stood at 1360 nM; in assay [2] it was 40.4 nM.

For the compound `O=C(O)CC(c1ccccc1)c1cccc(OCc2cccc(NC3=NCCN3)c2)c1` (stereo not drawn) [Example 99, 3-[[3-[(4,5-dihydro-1H-imidazol-2-yl)amino]phenyl]methoxy]-β-phenylbenzenepropanoic Acid, Trifluoroacetate Salt], the concentration for half-maximal inhibition (IC50) turned out to be 1000 nM in assay [1] and 48.6 nM in assay [2].

Take `COC(=O)Cc1cccc(CNC(=O)c2cccc(NC(=N)N)c2)c1` [Example 47, methyl 3-[[[[3-[(aminoiminomethyl)amino]phenyl]carbonyl]amino]methyl]benzeneacetate, trifluoroacetate salt]: the IC50 in assay [1] is greater than 100000 nM; in assay [2], 36500 nM.

With `CCOC(=O)CCc1cccc(CNC(=O)c2cccc(NC(N)=O)c2)c1` [Example 28, ethyl 3-[[[[3-[(aminocarbonyl)amino]phenyl]carbonyl]amino]methyl]benzenepropanoate], the IC50 in assay [1] and in assay [2] was greater than 100000 nM throughout.

For `CCOC(=O)CCc1cccc(CNC(=O)c2cccc(NC(=N)N)c2)c1` [Example 34, ethyl 3-[[[[3-[(aminoiminomethyl)amino]phenyl]carbonyl]amino]methyl]benzenepropanoate, trifluoroacetate salt], the IC50 in assay [1] came out at 66100 nM; in assay [2], 2930 nM.

Take `CC(CC(=O)OC(C)(C)C)c1cccc(CNC(=O)c2cccc(NC(=N)N)c2)c1` (stereo not drawn) [Example 39, 1,1-dimethylethyl 3-[[[[3-[(aminoiminomethyl)amino]phenyl]carbonyl]amino]methyl]-β-methyl)benzenepropanoate, trifluoroacetate salt]: the half-maximal inhibitory concentration (IC50) in assay [1] turned out to be 62400 nM; in assay [2] it was 8560 nM.
